Data published in US8470810B2, “Heterocyclic compounds suitable for treating disorders that respond to modulation of the dopamine D3 receptor” (Abbott GmbH & Co. KG, priority 2004, dated 2013).
pKi: −log10 of the molar value. Counter-ions that a name gives are not always drawn.

Assays:
[1] = molecular target: T1, human dopamine D2L receptors (long isoform) (Homo sapiens, UniProt P14416); test: Dopamine D2L receptor binding, displacement of [125I] iodospiperone; conditions: membranes of HEK-293 cells stably expressing human D2L; 0.01 nM [125I] iodospiperone; 25° C., 60 minutes; read-out: Ki(D2)*
T1 construct: expressed in transfected cells
T1 sequence (P14416 whole entry, canonical isoform): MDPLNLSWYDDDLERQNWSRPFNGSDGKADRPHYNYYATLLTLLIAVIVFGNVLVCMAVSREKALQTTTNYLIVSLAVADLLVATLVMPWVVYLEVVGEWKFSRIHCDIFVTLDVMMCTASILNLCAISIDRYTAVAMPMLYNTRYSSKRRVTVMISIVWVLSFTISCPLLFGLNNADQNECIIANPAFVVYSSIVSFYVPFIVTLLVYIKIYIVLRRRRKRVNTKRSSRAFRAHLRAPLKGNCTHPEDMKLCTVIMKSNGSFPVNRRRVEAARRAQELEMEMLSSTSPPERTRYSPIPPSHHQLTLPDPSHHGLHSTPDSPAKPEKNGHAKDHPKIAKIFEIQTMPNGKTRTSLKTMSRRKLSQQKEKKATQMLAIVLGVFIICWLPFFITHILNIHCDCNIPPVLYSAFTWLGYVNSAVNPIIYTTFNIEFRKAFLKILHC
Description: (§1) The substance to be tested was either dissolved in methanol/Chremophor® (BASFAG) or in dimethyl sulfoxide and then diluted with water to the desired concentration.
(§2) Each assay mixture was run in triplicate.
The incubation buffer contained 50 mM tris, 120 mM NaCl, 5 mM KCl, 2 mM CaCl2, 2 mM MgCl2 and 0.1% bovine serum albumin. The buffer was adjusted to pH 7.4 with HCl.
(§3) After having been incubated at 25° C. for 60 minutes, the assay mixtures were filtered through a Whatman GF/B glass fiber filter under vacuum using a cell collecting device. The filters were transferred to scintillation viols using a filter transfer system. After 4 ml of Ultima Gold® (Packard) have been added, the samples were shaken for one hour and the radioactivity was then counted in a Beta-Counter (Packard, Tricarb 2000 or 2200CA). The cpm values were converted into dpm using a standard quench series and the program belonging to the instrument.
(§4) The inhibition curves were analyzed by means of iterative nonlinear regression analysis using the Statistical Analysis System (SAS) which is similar to the “LIGAND” program described by Munson and Rodbard.
(§5) The results of the receptro binding studies are expressed as receptor binding constants Ki(D2) and Ki(D3), respectively, as herein before described, and given in table 6.

[2] = molecular target: T2, human dopamine D3 receptors (Homo sapiens, UniProt P35462); test: Dopamine D3 receptor binding, displacement of [125I]-iodosulpride; conditions: for pKi: membranes of HEK-293 cells stably expressing human D3, 0.1 nM [125I]-iodosulpride, 25° C., 60 minutes; for Ki(D2)*/Ki(D3)*: selectivity ratio of the receptor binding constants D2 over D3
T2 construct: expressed in transfected cells
T2 sequence (P35462 whole entry): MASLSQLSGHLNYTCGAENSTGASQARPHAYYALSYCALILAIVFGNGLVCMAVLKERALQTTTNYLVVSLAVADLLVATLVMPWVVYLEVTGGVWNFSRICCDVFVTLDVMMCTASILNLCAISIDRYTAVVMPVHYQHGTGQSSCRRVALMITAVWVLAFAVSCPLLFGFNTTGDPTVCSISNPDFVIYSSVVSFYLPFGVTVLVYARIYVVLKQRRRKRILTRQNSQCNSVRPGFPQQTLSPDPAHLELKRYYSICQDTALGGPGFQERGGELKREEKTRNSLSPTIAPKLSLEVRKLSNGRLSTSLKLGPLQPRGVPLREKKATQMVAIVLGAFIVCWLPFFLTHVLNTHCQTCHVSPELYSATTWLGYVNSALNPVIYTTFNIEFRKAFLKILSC
Description: as §1, §2
The incubation buffer contained 50 mM tris, 120 mM NaCl, 5 mM KCl, 2 mM CaCl2, 2 mM MgCl2 and 0.1% bovine serum albumin, 10 μM quinolone and 0.1% ascorbic acid (prepared fresh daily). The buffer was adjusted to pH 7.4 with HCl.
as §3, §4, §5

Row | SMILES | pKi [1] | pKi [2] | Ki(D2)*/Ki(D3)* [2]
1 | CCCN1CC[C@@H](c2ccc(NS(=O)(=O)c3ccc(C(C)=O)cc3)cc2)C1 [Example 26, 4-Acetyl-N-[4-((S)-1-propyl-pyrrolidin-3-yl)-phenyl]-benzenesulfonamide] | 5.89 | 7.55 | 46
2 | CCCN1CC[C@@H](c2ccc(NS(=O)(=O)c3ccc(C4CC4)cc3)cc2)C1 [Example 27, 4-Cyclopropyl-N-[4-((S)-1-propyl-pyrrolidin-3-yl)-phenyl]-benzenesulfonamide] | 8.15 | 9.64 | 30
3 | CCCN1CC[C@@H](c2ccc(NS(=O)(=O)c3ccc(Br)s3)cc2)C1.Cl [Example 28, 5-Bromo-thiophene-2-sulfonic acid [4-((S)-1-propyl-pyrrolidin-3-yl)-phenyl]-amide hydrochloride] | 6.88 | 8.48 | 41
4 | C=C(C)c1ccc(S(=O)(=O)Nc2ccc([C@@H]3CCN(CCC)C3)cc2)s1 [Example 29, 5-Isopropenyl-thiophene-2-sulfonic acid [4-((S)-1-propyl-pyrrolidin-3-yl)-phenyl]-amide] | 7.56 | 9.17 | 41
5 | CCCc1ccc(S(=O)(=O)Nc2ccc([C@@H]3CCN(CCC)C3)cc2)cc1.Cl [Example 30, 4-Propyl-N-[4-((S)-1-propyl-pyrrolidin-3-yl)-phenyl]-benzenesulfonamide hydrochloride] | 7.93 | 9.55 | 42
6 | CCCN1CCC(c2ccc(NS(=O)(=O)c3ccc(C(C)C)cc3)cn2)C1 (centres unmarked) [Example 31, N-[6-(1-propyl-pyrrolidin-3-yl)-pyridin-3-yl]-4-isopropyl-benzene-sulfonamide] | 6.59 | 7.97 | 24
7 | CCCN1CC[C@@H](c2ccc(NS(=O)(=O)c3ccc(C(C)CC)cc3)cc2)C1.Cl (stereo partly drawn) [Example 33, 4-sec-Butyl-N-[4-((S)-1-propyl-pyrrolidin-3-yl)-phenyl]-benzenesulfonamide hydrochloride] | 8.26 | 9.77 | 33
8 | CCCN1CC[C@@H](c2ccc(NS(=O)(=O)c3cc(F)c(Br)cc3F)cc2)C1 [Example 34] | 6.76 | 8.29 | 34
9 | CCCN1CC[C@@H](c2ccc(NS(=O)(=O)c3ccc(CC(C)C)cc3)cc2)C1.Cl [Example 35, 4-Isobutyl-N-[4-((S)-1-propyl-pyrrolidin-3-yl)-phenyl]-benzenesulfonamide hydrochloride] | 8.13 | 9.52 | 24
10 | CCCN1CC[C@@H](c2ccc(NS(=O)(=O)c3ccc(C4CCCC4)cc3)cc2)C1 [Example 37, 4-Cyclopentyl-N-[4-(S)-1-propyl-pyrrolidin-3-yl)-phenyl]-benzenesulfonamide hydrochloride] | 8.49 | 9.82 | 22
11 | CC(C)c1ccc(S(=O)(=O)Nc2ccc([C@@H]3CCN(CCCF)C3)cc2)cc1 [Example 38, 4-Isopropyl-N-[4-((S)-1-(3-fluoro-propyl)-pyrrolidin-3-yl)-phenyl]-benzenesulfonamide] | 8.20 | 9.54 | 21
12 | CCCCOc1ccc(S(=O)(=O)Nc2ccc([C@@H]3CCN(CCC)C3)cc2)cc1 [Example 40, 4-Butyloxy-N-[4-((S)-1-propyl-pyrrolidin-3-yl)-phenyl]-benzenesulfonamide] | 7.74 | 9.34 | 40
13 | CCCN1CC[C@@H](c2ccc(NS(=O)(=O)c3ccc(C4CC4(F)F)cc3)cc2)C1 (stereo partly drawn) [Example 41, 4-(2,2-Difluorocyclopropyl)-N-[4-((S)-1-propyl-pyrrolidin-3-yl)-phenyl]-benzenesulfonamide] | 7.87 | 9.36 | 30
14 | CCCN1CC(c2ccc(NS(=O)(=O)c3ccc(C(C)C)cc3)cn2)C1 [Example 46, 4-Isopropyl-N-[6-(1-propyl-azetidin-3-yl)-pyridin-3-yl]-benzenesulfonamide] | 5.74 | 7.31 | 37
15 | CCCN1CC(c2ccc(NS(=O)(=O)c3ccc(C(C)C)cc3)cc2)C1 [Example 48, 4-Isopropyl-N-[4-(1-propyl-azetidin-3-yl)-phenyl]-benzene sulfonamide] | 6.86 | 8.68 | 65
16 | CCCN1CC(c2ccc(NS(=O)(=O)c3ccc(OC(F)(F)F)cc3)cc2)C1 [Example 49, N-[4-(1-Propyl-azetidin-3-yl)-phenyl]-4-trifluoromethoxybenzene sulfonamide] | 5.74 | 7.34 | 39

Other lines, results leading:

Row | pKi [1] | pKi [2] | Ki(D2)*/Ki(D3)* [2] | SMILES
17 | 8.23 | 9.39 | 14 | CC(C)c1ccc(S(=O)(=O)Nc2ccc([C@@H]3CCN(CCCO)C3)cc2)cc1 [Example 53, N-{4-[(S)-1-(3-Hydroxy-propyl)-pyrrolidin-3-yl]-phenyl}-4-isopropyl-benzenesulfonamide]
18 | 8.06 | 9.49 | 27 | CCCN1CC[C@@H](c2ccc(NS(=O)(=O)c3ccc(C4CCC4)cc3)cc2)C1 [Example 54, 4-Cyclobutyl-N-[4-((S)-1-propyl-pyrrolidin-3-yl)-phenyl]-benzenesulfonamide]
19 | 5.93 | 8.15 | 165 | CCCN1CC(c2ccc(NS(=O)(=O)c3ccc(-c4cnco4)cc3)cc2)C1 [Example 55, 4-Oxazol-5-yl-N-[4-(1-propyl-azetidin-3-yl)-phenyl]-benzenesulfonamide]
20 | 5.57 | 7.61 | 109 | CCCN1CC(c2ccc(NS(=O)(=O)c3ccc(CCF)cc3)cc2)C1 [Example 56, 4-(2-Fluoro-ethyl)-N-[4-(1-propyl-azetidin-3-yl)-phenyl]-benzenesulfonamide]
21 | 6.06 | 8.14 | 123 | CCCN1CC(c2ccc(NS(=O)(=O)c3ccc(CCCF)cc3)cc2)C1 [Example 57, 4-(3-Fluoro-propyl)-N-[4-(1-propyl-azetidin-3-yl)-phenyl]-benzenesulfonamide]
22 | 5.53 | 7.40 | – | CCCN1CC(c2ccc(NS(=O)(=O)c3ccc(Br)cc3)cc2)C1 [Example 58, 4-Bromo-N-[4-(1-propyl-azetidin-3-yl)-phenyl]-benzenesulfonamide]
23 | 5.82 | 8.19 | 238 | CCCN1CC(c2ccc(NS(=O)(=O)c3ccc([C@@H](C)CF)cc3)cc2)C1 [Example 59, 4-((R)-2-Fluoro-1-methyl-ethyl)-N-[4-(1-propyl-azetidin-3-yl)-phenyl]-benzenesulfonamide]
24 | 5.11 | 8.12 | 1019 | CCCN1CC(c2ccc(NS(=O)(=O)c3ccc([C@H](C)CF)cc3)cc2)C1 [Example 60, 4-((S)-2-Fluoro-1-methyl-ethyl)-N-[4-(1-propyl-azetidin-3-yl)-phenyl]-benzenesulfonamide]
25 | 5.45 | 7.60 | 141 | CCCN1CC(c2ccc(NS(=O)(=O)c3ccc(CC(F)(F)F)cc3)cc2)C1 [Example 62, N-[4-(1-Propyl-azetidin-3-yl)-phenyl]-4-(2,2,2-trifluoro-ethyl)-benzenesulfonamide]
